Results: ChEMBL document CHEMBL1156471, “Targeting host cell furin proprotein convertases as a therapeutic strategy against bacterial toxins and viral pathogens” (J Biol Chem, 2007)

target: Furin (Homo sapiens, UniProt P09958)
Sequence (P09958 whole entry): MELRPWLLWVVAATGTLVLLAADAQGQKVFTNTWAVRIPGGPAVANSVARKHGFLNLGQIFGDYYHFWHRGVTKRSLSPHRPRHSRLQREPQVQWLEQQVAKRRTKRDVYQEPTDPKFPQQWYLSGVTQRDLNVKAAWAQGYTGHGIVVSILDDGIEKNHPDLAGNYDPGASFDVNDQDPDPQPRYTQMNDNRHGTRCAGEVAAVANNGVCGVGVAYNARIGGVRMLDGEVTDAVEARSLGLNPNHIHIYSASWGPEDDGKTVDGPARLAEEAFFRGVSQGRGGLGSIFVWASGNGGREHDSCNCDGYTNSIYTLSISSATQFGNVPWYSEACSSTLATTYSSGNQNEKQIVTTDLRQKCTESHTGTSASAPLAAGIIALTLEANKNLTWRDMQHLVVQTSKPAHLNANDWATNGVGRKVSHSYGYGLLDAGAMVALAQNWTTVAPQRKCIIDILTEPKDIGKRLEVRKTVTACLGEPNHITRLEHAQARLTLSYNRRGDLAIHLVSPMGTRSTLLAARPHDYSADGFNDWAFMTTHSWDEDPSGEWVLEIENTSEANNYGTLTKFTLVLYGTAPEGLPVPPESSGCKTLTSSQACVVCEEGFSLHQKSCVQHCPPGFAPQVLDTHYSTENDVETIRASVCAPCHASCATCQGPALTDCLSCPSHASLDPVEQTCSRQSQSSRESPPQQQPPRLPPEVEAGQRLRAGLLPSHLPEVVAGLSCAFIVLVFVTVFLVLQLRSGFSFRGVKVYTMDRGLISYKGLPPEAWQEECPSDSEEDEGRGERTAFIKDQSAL

`CC[C@H](NC(=O)[C@H](CCCNC(=N)N)NC(=O)[C@H](CCC(N)=O)NC(=O)[C@@H]1CCCN1C(=O)[C@@H](N)[C@@H](C)O)C(=O)N[C@@H](CCCNC(=N)N)C(=O)N[C@@H](CCCNC(=N)N)C(=O)N[C@@H](CCCNC(=N)N)C(=O)N[C@@H](CCCCN)C(=O)N[C@@H](CCCCN)C(=O)N[C@@H](CCCNC(=N)N)C(=O)NCC(=O)O` and `CSC[C@H](NC(=O)[C@H](CCCNC(=N)N)NC(=O)[C@H](CCC(N)=O)NC(=O)[C@@H]1CCCN1C(=O)[C@@H](N)[C@@H](C)O)C(=O)N[C@@H](CCCNC(=N)N)C(=O)N[C@@H](CCCNC(=N)N)C(=O)N[C@@H](CCCNC(=N)N)C(=O)N[C@@H](CCCCN)C(=O)N[C@@H](CCCCN)C(=O)N[C@@H](CCCNC(=N)N)C(=O)NCC(=O)O` cannot be ordered by Ki: over 100 nM for the first, over 100 nM for the second.

`C[C@H](NC(=O)[C@H](CCCNC(=N)N)NC(=O)[C@H](CCC(N)=O)NC(=O)[C@@H]1CCCN1C(=O)[C@@H](N)[C@@H](C)O)C(=O)N[C@@H](CCCNC(=N)N)C(=O)N[C@@H](CCCNC(=N)N)C(=O)N[C@@H](CCCNC(=N)N)C(=O)N[C@@H](CCCCN)C(=O)N[C@@H](CCCCN)C(=O)N[C@@H](CCCNC(=N)N)C(=O)N[C@H](CCCNC(=N)N)C(=O)O` and `C[C@H](NC(=O)[C@H](CCCNC(=N)N)NC(=O)[C@H](CCC(N)=O)NC(=O)[C@@H]1CCCN1C(=O)[C@@H](N)[C@@H](C)O)C(=O)N[C@@H](CCCNC(=N)N)C(=O)N[C@@H](CCCNC(=N)N)C(=O)N[C@@H](CCCNC(=N)N)C(=O)N[C@@H](CCCCN)C(=O)N[C@@H](CCCCN)C(=O)N[C@@H](CCCNC(=N)N)C(=O)N[C@@H](CCCCN)C(=O)O` cannot be ordered by Ki: over 100 nM for the first, over 100 nM for the second.

`C[C@@H](O)[C@H](N)C(=O)N1CCC[C@H]1C(=O)N[C@@H](CCCN=C(N)N)C(=O)N[C@@H](CCC(=O)O)C(=O)N[C@@H](CCCN=C(N)N)C(=O)N[C@@H](CCCN=C(N)N)C(=O)N[C@@H](CCCN=C(N)N)C(=O)N[C@@H](CCCCN)C(=O)N[C@@H](CCCCN)C(=O)N[C@@H](CCCNC(=N)N)C(=O)NCC(N)=O` and `C[C@H](NC(=O)[C@H](CCCN=C(N)N)NC(=O)[C@H](CCC(N)=O)NC(=O)[C@@H]1CCCN1C(=O)[C@@H](N)[C@@H](C)O)C(=O)N[C@@H](CCCN=C(N)N)C(=O)N[C@@H](CCCN=C(N)N)C(=O)N[C@@H](CCCN=C(N)N)C(=O)N[C@@H](CCCCN)C(=O)N[C@@H](CCCCN)C(=O)N[C@@H](CCCN=C(N)N)C(=O)NCC(=O)O` cannot be ordered by Ki: over 100 nM for the first, over 100 nM for the second.

`CSCC[C@H](NC(=O)[C@H](CCCN=C(N)N)NC(=O)[C@H](CCCCN)NC(=O)[C@H](CCCCN)NC(=O)[C@H](CCCN=C(N)N)NC(=O)[C@H](CCCN=C(N)N)NC(=O)[C@H](CCCN=C(N)N)NC(=O)[C@H](C)NC(=O)[C@H](CCCN=C(N)N)NC(=O)[C@@H]1CCCN1C(=O)[C@@H](N)[C@@H](C)O)C(N)=O` and `C[C@H](NC(=O)[C@H](CCCN=C(N)N)NC(=O)[C@@H]1CCCN1C(=O)[C@@H](N)[C@@H](C)O)C(=O)N[C@@H](CCCN=C(N)N)C(=O)N[C@@H](CCCN=C(N)N)C(=O)N[C@@H](CCCN=C(N)N)C(=O)N[C@@H](CCCCN)C(=O)N[C@@H](CCCCN)C(=O)N[C@@H](CCCN=C(N)N)C(=O)O` cannot be ordered by Ki: over 100 nM for the first, 138 nM for the second.

`C[C@H](NC(=O)[C@H](CCCN=C(N)N)NC(=O)[C@@H]1CCCN1C(=O)[C@@H](N)[C@@H](C)O)C(=O)N[C@@H](CCCN=C(N)N)C(=O)N[C@@H](CCCN=C(N)N)C(=O)N[C@@H](CCCN=C(N)N)C(=O)N[C@@H](CCCCN)C(=O)N[C@@H](CCCCN)C(=O)N[C@@H](CCCN=C(N)N)C(=O)N(C)CC(=O)O` and `C[C@H](NC(=O)[C@H](C)NC(=O)[C@H](CCCN=C(N)N)NC(=O)[C@H](CCCN=C(N)N)NC(=O)[C@H](CCCN=C(N)N)NC(=O)[C@H](CCC(=O)O)NC(=O)[C@H](CCCN=C(N)N)NC(=O)[C@@H]1CCCN1C(=O)[C@@H](N)[C@@H](C)O)C(=O)N[C@@H](CCCN=C(N)N)C(=O)N(C)CC(=O)O` cannot be ordered by Ki: over 100 nM for the first, over 100 nM for the second.

`C[C@@H](O)[C@H](N)C(=O)N1CCC[C@H]1C(=O)N[C@@H](CCCN=C(N)N)C(=O)N[C@@H](CCCCN)C(=O)N[C@@H](CCCN=C(N)N)C(=O)N[C@@H](CCCN=C(N)N)C(=O)N[C@@H](CCCN=C(N)N)C(=O)N[C@@H](CCCCN)C(=O)N[C@@H](CCCCN)C(=O)N[C@@H](CCCN=C(N)N)C(=O)NCC(N)=O` and `C[C@@H](O)[C@H](N)C(=O)N1CCC[C@H]1C(=O)N[C@@H](CCCN=C(N)N)C(=O)N[C@H](CCCCN)C(=O)N[C@@H](CCCN=C(N)N)C(=O)N[C@@H](CCCN=C(N)N)C(=O)N[C@@H](CCCN=C(N)N)C(=O)N[C@@H](CCCCN)C(=O)N[C@@H](CCCCN)C(=O)N[C@@H](CCCN=C(N)N)C(=O)NCC(N)=O` cannot be ordered by Ki: over 100 nM for the first, over 100 nM for the second.

`CC(C)C[C@H](NC(=O)[C@H](CCCNC(=N)N)NC(=O)[C@H](CCCCN)NC(=O)[C@H](CCCCN)NC(=O)[C@H](CCCNC(=N)N)NC(=O)[C@H](CCCNC(=N)N)NC(=O)[C@H](CCCNC(=N)N)NC(=O)[C@H](C)NC(=O)[C@H](CCCNC(=N)N)NC(=O)[C@@H]1CCCN1C(=O)[C@@H](N)[C@@H](C)O)C(N)=O` and `C[C@H](NC(=O)[C@H](CCCNC(=N)N)NC(=O)[C@@H]1CCCN1C(=O)[C@@H](N)[C@@H](C)O)C(=O)N[C@@H](CCCNC(=N)N)C(=O)N[C@@H](CCCNC(=N)N)C(=O)N[C@@H](CCCNC(=N)N)C(=O)N[C@@H](CCCCN)C(=O)N[C@@H](CCCCN)C(=O)N[C@@H](CCCNC(=N)N)C(=O)N[C@@H](CS)C(N)=O` cannot be ordered by Ki: over 100 nM for the first, over 100 nM for the second.

`C[C@@H](N)C(=O)N1CCC[C@H]1C(=O)N[C@@H](CCCNC(=N)N)C(=O)N[C@@H](CCC(=O)O)C(=O)N[C@@H](CCCNC(=N)N)C(=O)N[C@@H](CCCNC(=N)N)C(=O)N[C@@H](CCCNC(=N)N)C(=O)N[C@@H](CCCCN)C(=O)N[C@@H](CCCCN)C(=O)N[C@@H](CCCNC(=N)N)C(=O)NCC(N)=O` and `C[C@H](O)[C@H](N)C(=O)N1CCC[C@H]1C(=O)N[C@@H](CCCNC(=N)N)C(=O)N[C@H](CCC(=O)O)C(=O)N[C@@H](CCCNC(=N)N)C(=O)N[C@@H](CCCNC(=N)N)C(=O)N[C@@H](CCCNC(=N)N)C(=O)N[C@@H](CCCCN)C(=O)N[C@@H](CCCCN)C(=O)N[C@@H](CCCNC(=N)N)C(=O)NCC(N)=O` cannot be ordered by Ki: over 100 nM for the first, over 100 nM for the second.

`C[C@H](NC(=O)[C@H](C)NC(=O)[C@H](CCCN=C(N)N)NC(=O)[C@H](CCCN=C(N)N)NC(=O)[C@H](CCCN=C(N)N)NC(=O)[C@H](CCC(=O)O)NC(=O)[C@H](CCCN=C(N)N)NC(=O)[C@@H]1CCCN1C(=O)[C@@H](N)[C@@H](C)O)C(=O)N[C@@H](CCCN=C(N)N)C(=O)O` and `C[C@H](NC(=O)[C@H](CCCN=C(N)N)NC(=O)[C@H](CCC(N)=O)NC(=O)[C@@H]1CCCN1C(=O)[C@@H](N)[C@@H](C)O)C(=O)N[C@@H](CCCN=C(N)N)C(=O)N[C@@H](CCCN=C(N)N)C(=O)N[C@@H](CCCN=C(N)N)C(=O)N[C@@H](CCCCN)C(=O)N[C@@H](CCCCN)C(=O)N[C@@H](CCCN=C(N)N)C(=O)N[C@@H](CCCN=C(N)N)C(=O)O` cannot be ordered by Ki: over 100 nM for the first, over 100 nM for the second.

`C[C@@H](O)[C@H](N)C(=O)N1CCC[C@H]1C(=O)N[C@@H](CCCNC(=N)N)C(=O)N[C@@H](CCCNC(N)=O)C(=O)N[C@@H](CCCNC(=N)N)C(=O)N[C@@H](CCCNC(=N)N)C(=O)N[C@@H](CCCNC(=N)N)C(=O)N[C@@H](CCCCN)C(=O)N[C@@H](CCCCN)C(=O)N[C@@H](CCCNC(=N)N)C(=O)NCC(N)=O` and `C[C@@H](O)[C@H](N)C(=O)N1CCC[C@H]1C(=O)N[C@@H](CCCNC(=N)N)C(=O)NCCC(=O)N[C@@H](CCCNC(=N)N)C(=O)N[C@@H](CCCNC(=N)N)C(=O)N[C@@H](CCCNC(=N)N)C(=O)N[C@@H](CCCCN)C(=O)N[C@@H](CCCCN)C(=O)N[C@@H](CCCNC(=N)N)C(=O)NCC(N)=O` cannot be ordered by Ki: over 100 nM for the first, over 100 nM for the second.

`C[C@@H](O)[C@H](N)C(=O)N1CCC[C@H]1C(=O)N[C@@H](CCC(N)=O)C(=O)N[C@@H](CCCN=C(N)N)C(=O)N[C@@H](CC1CCCCC1)C(=O)N[C@@H](CCCN=C(N)N)C(=O)N[C@@H](CCCN=C(N)N)C(=O)N[C@@H](CCCN=C(N)N)C(=O)N[C@@H](CCCCN)C(=O)N[C@@H](CCCCN)C(=O)N[C@@H](CCCNC(=N)N)C(=O)NCC(=O)O` and `C[C@@H](O)[C@H](N)C(=O)N1CCC[C@H]1C(=O)N[C@@H](CCCN=C(N)N)C(=O)NC1(C(=O)N[C@@H](CCCN=C(N)N)C(=O)N[C@@H](CCCN=C(N)N)C(=O)N[C@@H](CCCN=C(N)N)C(=O)N[C@@H](CCCCN)C(=O)N[C@@H](CCCCN)C(=O)N[C@@H](CCCN=C(N)N)C(=O)NCC(N)=O)CCCC1` cannot be ordered by Ki: over 100 nM for the first, over 100 nM for the second.

`C[C@@H](O)[C@H](N)C(=O)N1CCC[C@H]1C(=O)N[C@@H](CCC(N)=O)C(=O)N[C@@H](CCCNC(=N)N)C(=O)NC1(C(=O)N[C@@H](CCCNC(=N)N)C(=O)N[C@@H](CCCNC(=N)N)C(=O)N[C@@H](CCCNC(=N)N)C(=O)N[C@@H](CCCCN)C(=O)N[C@@H](CCCCN)C(=O)NC2(C(=O)NCC(=O)O)CCCC2)CCCC1` and `CCCC[C@H](NC(=O)[C@H](CCCNC(=N)N)NC(=O)[C@H](CCC(N)=O)NC(=O)[C@@H]1CCCN1C(=O)[C@@H](N)[C@@H](C)O)C(=O)N[C@@H](CCCNC(=N)N)C(=O)N[C@@H](CCCNC(=N)N)C(=O)N[C@@H](CCCNC(=N)N)C(=O)N[C@@H](CCCCN)C(=O)N[C@@H](CCCCN)C(=O)N[C@@H](CCCNC(=N)N)C(=O)NCC(=O)O` cannot be ordered by Ki: over 100 nM for the first, over 100 nM for the second.

`C[C@H](NC(=O)[C@H](CCCNC(=N)N)NC(=O)[C@H](CCC(N)=O)NC(=O)[C@@H]1CCCN1C(=O)[C@@H](N)[C@@H](C)O)C(=O)N[C@@H](CCCNC(=N)N)C(=O)N[C@@H](CCCNC(=N)N)C(=O)N[C@@H](CCCNC(=N)N)C(=O)N[C@@H](CCCCN)C(=O)N[C@@H](CCCCN)C(=O)N[C@@H](CCCNC(=N)N)C(=O)N[C@H](CCCCN)C(=O)O` and `C[C@@H](O)[C@H](N)C(=O)N1CCC[C@H]1C(=O)N[C@@H](CCCNC(=N)N)C(=O)NCCCCCC(=O)N[C@@H](CCCNC(=N)N)C(=O)N[C@@H](CCCNC(=N)N)C(=O)N[C@@H](CCCNC(=N)N)C(=O)N[C@@H](CCCCN)C(=O)N[C@@H](CCCCN)C(=O)N[C@@H](CCCNC(=N)N)C(=O)NCC(N)=O` cannot be ordered by Ki: over 100 nM for the first, over 100 nM for the second.

For `C[C@H](NC(=O)[C@H](C)NC(=O)[C@H](CCCNC(=N)N)NC(=O)[C@H](CCCNC(=N)N)NC(=O)[C@H](CCCNC(=N)N)NC(=O)[C@H](CCC(=O)O)NC(=O)[C@H](CCCNC(=N)N)NC(=O)[C@@H]1CCCN1C(=O)[C@@H](N)[C@@H](C)O)C(=O)N[C@@H](CCCNC(=N)N)C(=O)NCC(=O)O`, the Ki was over 100 nM.
